Laboratory results from US5968955A, “Disubstituted piperidine derivatives as neuroprotective agents” (Pharmacia & Upjohn S.p.A., priority 1995, dated 1999).

What was measured:
[1] = system: mixed cortical neuronal cultures; assay: neuroprotection against NMDA induced toxicity in mixed cortical neuronal cultures (Trypan Blue Dye Exclusion); assay type: cell-based, rat (foetal rats); conditions: prevention of toxicity by NMDA 500 μM, 20 min exposure, 3 min preincubation, viability after 24 h
Protocol: The efficacy of the compounds of the invention as neuroprotective agents, based upon their ability to prevent EEA induced toxicity in vitro, was evaluated in mixed cortical neuronal cultures, following the method reported below.
Mixed cortical neuronal cultures from foetal rats at 16 days of gestation were prepared as described by Choi (J. Neur. Sci. 7: 357-368, 1987).
Briefly, dissociated cells were plated on poly-L-lysine coated multiwell plates at density of 1*10^5 cells/cm^2 in MEM with Earle's salts supplemented with 21 mM D-glucose, 2 mM L-glutamine, 50 μg/ml Streptomicin, 50 IU Penicillin, 10% Foetal Calf Serum and 10% Horse Serum. Cultures were kept at 37° C., 5% CO2 and survived about 5 weeks. After 7 days in vitro, astrocites proliferation was inhibited by adding 10 μM Cytosine Arabinoside for 48 hours; the medium was subsequently substituted twice a week with a fresh medium without foetal calf serum (Hatley, J. Pharm. and Exp. Ther. 250 (II);752-758, 1989).
Only nature cortical cultures, from 14 DIV on, were used for the study.
Experiments were performed at 25° C. as follows: cells were washed once with a Locke's buffer, (128 mM NaCl, […] KCl, 1.2 mM Na2 HPO4, 2.7 mM CaCl2, 20 mM Hepes and 10 mM D-glucose) pH=7.4, then preincubated with the test compounds for 3 min. followed by a 20 min. exposure to N-methyl-D-aspartate (NMDA) (500 μM).
The incubation was stopped by removing Locke's buffer and substituting the conditioned medium. After 24 hours at 37° C., 5% CO2, Trypan Blue Dye Exclusion Test (0.04%) was used for evaluating the cells viability.

[2] = system: focal ischemia in mice (Middle Cerebral Artery occlusion); assay: antiischemic activity in vivo in the model of focal ischemia in mice (MCA electrocoagulation), infarct volume; parameters: species or system mice (male Swiss CD); conditions: male Swiss mice; for Infarct volume: Means ± SEM after MCA occlusion, day 4, 7 mg/Kg i.p. 5 min and 6 h after ischemia, then twice a day on days 2, 3 and 4, saline 20.9 ± 1.7, P < 0.01 from controls
Protocol: The antiischemic activity of the compounds of the present invention was evaluated in vivo in the model of focal ischemia in mice.
Focal ischemia was produced in mice by electrocoagulation of the Middle Cerebral Artery (MCA) according the procedure reported by Welsh et al. (Welsh F A, Sakamoto T, McKee A, Sims R E, J Neurochem: 49: 846-851, 1987). Briefly, male Swiss CD mice (C. River, Milan, Italy) were anesthetised with chloral hydrate (500 mg/Kg i.p.); an incision was made on the temporo-parietal region of the head and a small burr hole was drilled into the lateral outer surface of the skull just over the MCA. The stem of the MCA was occluded by microbipolar coagulation. Animals were maintained under an heating lamp during surgery and for two hours afterwards.
Four days after the occlusion, mice were decapitated and the brains stored a -20° C. until sectioned for histological examination.
Coronal sections (50 μm thick) of the frozen brains were taken every 1.00 mm in order to evaluate the infarct volume.
The slices were stained with cresyl violet and the cortical infarct area of each slice was determined by an image analyzing system (Ibas 20, Kontron, Milan, Italy). Infarct volume was calculated from the infarct area on each slice and the distance between succeeding slices.
The treatment schedule consisted in the administration of the tested compound 5 min and 6 h after ischemia during the first day after surgery and then twice a day on days 2, 3 and 4 according to published data (Gotti B. et al.; Brain Research, 522,290-307, 1990). The tested compounds were given i.p. at the dose of 7 mg/Kg.
Dosing was performed till sacrifice. The time schedule, the doses and the route of administration of the tested compounds were selected on the basis of preliminary experiments.

Row | SMILES | EC50 ([1]; Rattus norvegicus) | other results
1 | OC(CN1CCC(Cc2ccccc2)CC1)c1cc(Br)no1 (racemic) [Compound 1, (±)-2-(4-Benzyl-piperidin-1-yl)-1-(3-bromo-isoxazol-5-yl) -ethan-1-ol] | 2020 nM | 
2 | COc1cc(C(O)CN2CCC(Cc3ccccc3)CC2)on1 (racemic) [Compound 3, (±)-2-(4-Benzyl-piperidin-1-yl)-1-(3-methoxy-isoxazol-5-yl)-ethan-1-ol] | 3290 nM | Effect on infarct volume compared with saline-treated mice (in words) ([2]; 7 mg/Kg i.p., day 4, versus saline): significantly reduce infarct volume; Infarct volume ([2]; 7 mg/kg): 13.6 ± 1.5 mm^3; Infarct volume ([2]; listed as Example 2, 7 mg/kg): 13.6±1.5 mm^3
3 | COc1cc(C(O)CN2CCC(C(=O)c3ccc(F)cc3)CC2)on1 (racemic) [Compound 27, (±)2-[4-(p-Fluoro-benzoyl)-piperidin-1-yl]-1-(3-methoxy-isoxazol-5-yl)-ethan-1-ol] | 640 nM | 
4 | O=C(c1ccc(F)cc1)C1CCN(CC(O)c2cc(Br)no2)CC1 (centres unmarked) [Compound 25, 2-[4-(4-fluoro-benzoyl)piperidin-1-yl]-1-(3-bromo-isoxazol-5-yl)-ethan-1-ol] | 22000 nM | 
5 | ON=C(CN1CCC(Cc2ccccc2)CC1)c1cc(Br)no1 [Compound 17, (±)-2-(4-Benzyl-piperidin-1-yl)-1-(3-bromo-isoxazol-5-yl)-ethan-1-one-oxyme] |  | EC50 [1]: 2130 nM
